Tested on: Lolium multiflorum
Experiment: Further glasshouse test versus other ACCase-inhibiting herbicides, Table B2-1
Type: in vivo
Settings: 21 days after application
Text: Further tests were employed to test the efficacy of a compound of Formula I versus other ACCase-inhibiting herbicides. The five main targets were Lolium multiflorum, Eleusine indica, Digitaria insularis, Sorghum halepense and Echinochloa crus-galli. Collectively, the populations contained all the major target-site resistance mutations affecting ACCase herbicides. Two L. multiflorum (LM-NTSR-1 and LM-NTSR-2) and one E. crus-galli (ECG-NTSR-1) populations were characterised exclusively by non-target-site resistance (“NTSR”). The target-site resistant L. multiflorum and E. indication populations were 100% homozygous for different ACCase mutations whilst the D. insularis, S. halepense and E. crus-galli samples contained a mixture of homozygous wild and mutant individuals at different genotypic frequencies. Additional underlying NTSR cannot be ruled out in the populations characterised by target-site resistance.
Around 50 seeds of each of the 24 weed populations were sown in 12-cm pots containing a mixture of peat and compost in a 1:1 ratio. The pots were watered, fertilised and kept in controlled glasshouse conditions set at 24° C./16 hr day, 18° C. night, 65% relative humidity, and a photon flux density of approximately 250 μmol quanta m^−2 s^−1 for Lolium multiflorum. The E. indica, D. insularis, S. halepense and E. crus-galli plants were kept in a separate glasshouse bay characterised by a 17 H photoperiod of 180 μmol m^−2 s^−1 with temperatures of 25° C. day and 19° C. night and 65% relative humidity. When the plants were at the two to four-leaf stage, they were treated with the various ACCase-inhibiting herbicides at 0, 15, 30, 60, 120 and 240 g ai ha^−1 in a spray cabinet mounted with a single mobile Teejet flat fan nozzle (11002VS) calibrated to deliver 200 L ha^−1 at 200 kPa. The L. multiflorum populations were treated by a compound of Formula Ic, clodinafop-propargyl, pinoxaden, cycloxydim and clethodim and the warm season grass weeds E. indica, D. insularis, S. halepense and E. crus-galli were sprayed with a Compound Ic and the commonly employed haloxyfop-methyl and clethodim. Three replicate pots were used per population. Plants were assessed for visual damage compared to the untreated control 21 days after application (0=0% damage; 100=100% damage).

[1] = population LM-NTSR-1 (non-target-site resistance), 15 g/ha
[2] = population LM-NTSR-1 (non-target-site resistance), 30 g/ha
[3] = population LM-NTSR-1 (non-target-site resistance), 60 g/ha
[4] = population LM-NTSR-1 (non-target-site resistance), 120 g/ha
[5] = population LM-NTSR-1 (non-target-site resistance), 240 g/ha
[6] = population LM-NTSR-2 (non-target-site resistance), 15 g/ha
[7] = population LM-NTSR-2 (non-target-site resistance), 30 g/ha
[8] = population LM-NTSR-2 (non-target-site resistance), 60 g/ha
[9] = population LM-NTSR-2 (non-target-site resistance), 120 g/ha
[10] = population LM-NTSR-2 (non-target-site resistance), 240 g/ha

SMILES	visual damage (biotype C2088R, 15 g/ha)	visual damage (biotype C2088R, 30 g/ha)	visual damage (biotype C2088R, 60 g/ha)	visual damage (biotype C2088R, 120 g/ha)	visual damage (biotype C2088R, 240 g/ha)	visual damage (biotype D2078G, 15 g/ha)	visual damage (biotype D2078G, 30 g/ha)	visual damage (biotype D2078G, 60 g/ha)	visual damage (biotype D2078G, 120 g/ha)	visual damage (biotype D2078G, 240 g/ha)	visual damage (biotype I1781L, 15 g/ha)	visual damage (biotype I1781L, 30 g/ha)	visual damage (biotype I1781L, 60 g/ha)	visual damage (biotype I1781L, 120 g/ha)	visual damage (biotype I1781L, 240 g/ha)	visual damage (biotype Sensitive, 15 g/ha)	visual damage (biotype Sensitive, 30 g/ha)	visual damage (biotype Sensitive, 60 g/ha)	visual damage (biotype Sensitive, 120 g/ha)	visual damage (biotype Sensitive, 240 g/ha)	also measured
C#CCOC(=O)[C@@H](C)Oc1ccc(Oc2ncc(Cl)cc2F)cc1 [Clodinafop-propargyl, clodinafop-propargyl]	0%	0%	0%	0%	7%	0%	0%	0%	0%	0%	7%	7%	7%	10%	33%	67%	98%	100%	100%	100%	visual damage (biotype W1999S, 15 g/ha): 0%; visual damage (biotype W1999S, 30 g/ha): 0%; visual damage (biotype W1999S, 60 g/ha): 0%; visual damage (biotype W1999S, 120 g/ha): 0%; visual damage (biotype W1999S, 240 g/ha): 0%; visual damage (biotype W2027C, 15 g/ha): 0%; visual damage (biotype W2027C, 30 g/ha): 0%; visual damage (biotype W2027C, 60 g/ha): 0%; visual damage (biotype W2027C, 120 g/ha): 0%; visual damage (biotype W2027C, 240 g/ha): 0%; visual damage [1]: 0%; visual damage [2]: 0%; visual damage [3]: 0%; visual damage [4]: 27%; visual damage [5]: 52%; visual damage [6]: 0%; visual damage [7]: 0%; visual damage [8]: 0%; visual damage [9]: 0%; visual damage [10]: 0%
CCCC(=NOCC)C1=C(O)CC(C2CCCSC2)CC1=O (stereo not drawn) [Cycloxydim, cycloxydim]	0%	0%	0%	0%	0%	0%	0%	0%	3%	7%	0%	0%	7%	13%	13%	0%	0%	0%	88%	100%	visual damage (biotype W1999S, 15 g/ha): 0%; visual damage (biotype W1999S, 30 g/ha): 0%; visual damage (biotype W1999S, 60 g/ha): 0%; visual damage (biotype W1999S, 120 g/ha): 0%; visual damage (biotype W1999S, 240 g/ha): 0%; visual damage (biotype W2027C, 15 g/ha): 0%; visual damage (biotype W2027C, 30 g/ha): 0%; visual damage (biotype W2027C, 60 g/ha): 0%; visual damage (biotype W2027C, 120 g/ha): 0%; visual damage (biotype W2027C, 240 g/ha): 50%; visual damage [1]: 0%; visual damage [2]: 0%; visual damage [3]: 0%; visual damage [4]: 3%; visual damage [5]: 60%; visual damage [6]: 0%; visual damage [7]: 0%; visual damage [8]: 0%; visual damage [9]: 0%; visual damage [10]: 0%
CCc1cc(C)cc(CC)c1-c1c(OC(=O)C(C)(C)C)n2n(c1=O)CCOCC2 [Pinoxaden, pinoxaden]	0%	0%	0%	3%	30%	3%	3%	10%	45%	90%	7%	7%	27%	73%	98%	100%	100%	100%	100%	100%	visual damage (biotype W1999S, 15 g/ha): 0%; visual damage (biotype W1999S, 30 g/ha): 0%; visual damage (biotype W1999S, 60 g/ha): 0%; visual damage (biotype W1999S, 120 g/ha): 7%; visual damage (biotype W1999S, 240 g/ha): 33%; visual damage (biotype W2027C, 15 g/ha): 0%; visual damage (biotype W2027C, 30 g/ha): 10%; visual damage (biotype W2027C, 60 g/ha): 62%; visual damage (biotype W2027C, 120 g/ha): 93%; visual damage (biotype W2027C, 240 g/ha): 100%; visual damage [1]: 30%; visual damage [2]: 85%; visual damage [3]: 97%; visual damage [4]: 100%; visual damage [5]: 100%; visual damage [6]: 0%; visual damage [7]: 0%; visual damage [8]: 0%; visual damage [9]: 65%; visual damage [10]: 53%
